# In PubChem BioAssay (NCI):
#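 Compound exposure: 48 hours, 5 concentrations, 96-well plates. TGI denotes the concentration required for complete inhibition of growth.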
# Tested on: SK-MEL-5 melanoma
# Experiment: inhibition of tumour cell growth, NCI panel, 48 h
row,SMILES,TGI [µM]
1,Cc1ccc(S(=O)(=O)N/N=C2/C3CCC(C3)C2c2ccccc2)cc1 (stereo unspecified),> 100
2,CN1N(c2ccccc2)C(=O)C2=NC=C(C(=O)c3ccccc3)C(=N)C21C (stereo unspecified),> 100
3,Cc1cc(=O)[nH]c(-n2[nH]c3c(c2=O)CCCC3)n1,> 100
4,O=C1c2ccc3c4ccc5c6c(ccc(c7ccc(c2c37)C(=O)N1CCN1CCCCC1)c64)C(=O)N(CCN1CCCCC1)C5=O,> 100
5,Cc1cccc(NS(=O)(=O)c2ccc3c(c2)OCCOCCOCCOCCO3)c1,> 100

# Tested on: LOX IMVI melanoma
# Experiment: inhibition of tumour cell growth, NCI panel, 48 h
row,SMILES,TGI [µM]
1,Cc1ccc(S(=O)(=O)N/N=C2/C3CCC(C3)C2c2ccccc2)cc1 (stereo unspecified),> 100
2,CN1N(c2ccccc2)C(=O)C2=NC=C(C(=O)c3ccccc3)C(=N)C21C (stereo unspecified),> 100
3,O=C1c2ccc3c4ccc5c6c(ccc(c7ccc(c2c37)C(=O)N1CCN1CCCCC1)c64)C(=O)N(CCN1CCCCC1)C5=O,> 100

# Tested on: NCI/ADR-RES ovarian
# Experiment: inhibition of tumour cell growth, NCI panel, 48 h
row,SMILES,TGI [µM]
1,Cc1ccc(S(=O)(=O)N/N=C2/C3CCC(C3)C2c2ccccc2)cc1 (stereo unspecified),> 100
2,O=C1c2ccc3c4ccc5c6c(ccc(c7ccc(c2c37)C(=O)N1CCN1CCCCC1)c64)C(=O)N(CCN1CCCCC1)C5=O,> 100

# Tested on: SK-MEL-2 melanoma
# Experiment: inhibition of tumour cell growth, NCI panel, 48 h
row,SMILES,TGI [µM]
1,Cc1ccc(S(=O)(=O)N/N=C2/C3CCC(C3)C2c2ccccc2)cc1 (stereo unspecified),> 100
2,CN1N(c2ccccc2)C(=O)C2=NC=C(C(=O)c3ccccc3)C(=N)C21C (stereo unspecified),> 100
3,Cc1cc(=O)[nH]c(-n2[nH]c3c(c2=O)CCCC3)n1,> 100
4,O=C1c2ccc3c4ccc5c6c(ccc(c7ccc(c2c37)C(=O)N1CCN1CCCCC1)c64)C(=O)N(CCN1CCCCC1)C5=O,> 100

# Tested on: SF-268 CNS
# Experiment: inhibition of tumour cell growth, NCI panel, 48 h
row,SMILES,TGI [µM]
1,Cc1ccc(S(=O)(=O)N/N=C2/C3CCC(C3)C2c2ccccc2)cc1 (stereo unspecified),> 100
2,CN1N(c2ccccc2)C(=O)C2=NC=C(C(=O)c3ccccc3)C(=N)C21C (stereo unspecified),> 100
3,Cc1cc(=O)[nH]c(-n2[nH]c3c(c2=O)CCCC3)n1,> 100
4,O=C1c2ccc3c4ccc5c6c(ccc(c7ccc(c2c37)C(=O)N1CCN1CCCCC1)c64)C(=O)N(CCN1CCCCC1)C5=O,> 100
5,Cc1cccc(NS(=O)(=O)c2ccc3c(c2)OCCOCCOCCOCCO3)c1,> 100

# Tested on: T-47D breast
# Experiment: inhibition of tumour cell growth, NCI panel, 48 h
row,SMILES,TGI [µM]
1,Cc1ccc(S(=O)(=O)N/N=C2/C3CCC(C3)C2c2ccccc2)cc1 (stereo unspecified),> 100
2,CN1N(c2ccccc2)C(=O)C2=NC=C(C(=O)c3ccccc3)C(=N)C21C (stereo unspecified),> 100
3,Cc1cc(=O)[nH]c(-n2[nH]c3c(c2=O)CCCC3)n1,> 100
4,O=C1c2ccc3c4ccc5c6c(ccc(c7ccc(c2c37)C(=O)N1CCN1CCCCC1)c64)C(=O)N(CCN1CCCCC1)C5=O,> 100
5,Cc1cccc(NS(=O)(=O)c2ccc3c(c2)OCCOCCOCCOCCO3)c1,> 100

# Tested on: SNB-75 CNS
# Experiment: inhibition of tumour cell growth, NCI panel, 48 h
row,SMILES,TGI [µM]
1,Cc1ccc(S(=O)(=O)N/N=C2/C3CCC(C3)C2c2ccccc2)cc1 (stereo unspecified),> 100
2,Cc1cc(=O)[nH]c(-n2[nH]c3c(c2=O)CCCC3)n1,9.37
3,Cc1cccc(NS(=O)(=O)c2ccc3c(c2)OCCOCCOCCOCCO3)c1,> 100

# Tested on: MDA-N
# Experiment: inhibition of tumour cell growth, NCI panel, 48 h
row,SMILES,TGI [µM]
1,Cc1ccc(S(=O)(=O)N/N=C2/C3CCC(C3)C2c2ccccc2)cc1 (stereo unspecified),> 100
2,CN1N(c2ccccc2)C(=O)C2=NC=C(C(=O)c3ccccc3)C(=N)C21C (stereo unspecified),> 100
3,Cc1cc(=O)[nH]c(-n2[nH]c3c(c2=O)CCCC3)n1,> 100
4,O=C1c2ccc3c4ccc5c6c(ccc(c7ccc(c2c37)C(=O)N1CCN1CCCCC1)c64)C(=O)N(CCN1CCCCC1)C5=O,> 100
5,Cc1cccc(NS(=O)(=O)c2ccc3c(c2)OCCOCCOCCOCCO3)c1,> 100

# Tested on: OVCAR-8 ovarian
# Experiment: inhibition of tumour cell growth, NCI panel, 48 h
row,SMILES,TGI [µM]
1,Cc1ccc(S(=O)(=O)N/N=C2/C3CCC(C3)C2c2ccccc2)cc1 (stereo unspecified),> 100
2,O=C1c2ccc3c4ccc5c6c(ccc(c7ccc(c2c37)C(=O)N1CCN1CCCCC1)c64)C(=O)N(CCN1CCCCC1)C5=O,> 100
3,Cc1cccc(NS(=O)(=O)c2ccc3c(c2)OCCOCCOCCOCCO3)c1,> 100

# Tested on: SN12C renal
# Experiment: inhibition of tumour cell growth, NCI panel, 48 h
row,SMILES,TGI [µM]
1,Cc1ccc(S(=O)(=O)N/N=C2/C3CCC(C3)C2c2ccccc2)cc1 (stereo unspecified),> 100
2,CN1N(c2ccccc2)C(=O)C2=NC=C(C(=O)c3ccccc3)C(=N)C21C (stereo unspecified),> 100
3,Cc1cc(=O)[nH]c(-n2[nH]c3c(c2=O)CCCC3)n1,> 100
4,O=C1c2ccc3c4ccc5c6c(ccc(c7ccc(c2c37)C(=O)N1CCN1CCCCC1)c64)C(=O)N(CCN1CCCCC1)C5=O,> 100
5,Cc1cccc(NS(=O)(=O)c2ccc3c(c2)OCCOCCOCCOCCO3)c1,> 100

# Tested on: EKVX NSCLC
# Experiment: inhibition of tumour cell growth, NCI panel, 48 h
row,SMILES,TGI [µM]
1,Cc1ccc(S(=O)(=O)N/N=C2/C3CCC(C3)C2c2ccccc2)cc1 (stereo unspecified),> 100
2,CN1N(c2ccccc2)C(=O)C2=NC=C(C(=O)c3ccccc3)C(=N)C21C (stereo unspecified),> 100
3,Cc1cc(=O)[nH]c(-n2[nH]c3c(c2=O)CCCC3)n1,> 100
4,O=C1c2ccc3c4ccc5c6c(ccc(c7ccc(c2c37)C(=O)N1CCN1CCCCC1)c64)C(=O)N(CCN1CCCCC1)C5=O,> 100
5,Cc1cccc(NS(=O)(=O)c2ccc3c(c2)OCCOCCOCCOCCO3)c1,> 100

# Tested on: SNB-19 CNS
# Experiment: inhibition of tumour cell growth, NCI panel, 48 h
row,SMILES,TGI [µM]
1,Cc1ccc(S(=O)(=O)N/N=C2/C3CCC(C3)C2c2ccccc2)cc1 (stereo unspecified),> 100
2,CN1N(c2ccccc2)C(=O)C2=NC=C(C(=O)c3ccccc3)C(=N)C21C (stereo unspecified),> 100
3,Cc1cc(=O)[nH]c(-n2[nH]c3c(c2=O)CCCC3)n1,> 100
4,O=C1c2ccc3c4ccc5c6c(ccc(c7ccc(c2c37)C(=O)N1CCN1CCCCC1)c64)C(=O)N(CCN1CCCCC1)C5=O,> 100
5,Cc1cccc(NS(=O)(=O)c2ccc3c(c2)OCCOCCOCCOCCO3)c1,> 100

# Tested on: A549 NSCLC
# Experiment: inhibition of tumour cell growth, NCI panel, 48 h
row,SMILES,TGI [µM]
1,Cc1ccc(S(=O)(=O)N/N=C2/C3CCC(C3)C2c2ccccc2)cc1 (stereo unspecified),> 100
2,CN1N(c2ccccc2)C(=O)C2=NC=C(C(=O)c3ccccc3)C(=N)C21C (stereo unspecified),> 100
3,Cc1cc(=O)[nH]c(-n2[nH]c3c(c2=O)CCCC3)n1,> 100
4,O=C1c2ccc3c4ccc5c6c(ccc(c7ccc(c2c37)C(=O)N1CCN1CCCCC1)c64)C(=O)N(CCN1CCCCC1)C5=O,> 100
5,Cc1cccc(NS(=O)(=O)c2ccc3c(c2)OCCOCCOCCOCCO3)c1,> 100

# Tested on: MCF7 breast
# Experiment: inhibition of tumour cell growth, NCI panel, 48 h
row,SMILES,TGI [µM]
1,Cc1ccc(S(=O)(=O)N/N=C2/C3CCC(C3)C2c2ccccc2)cc1 (stereo unspecified),> 100
2,CN1N(c2ccccc2)C(=O)C2=NC=C(C(=O)c3ccccc3)C(=N)C21C (stereo unspecified),> 100
3,Cc1cc(=O)[nH]c(-n2[nH]c3c(c2=O)CCCC3)n1,> 100
4,O=C1c2ccc3c4ccc5c6c(ccc(c7ccc(c2c37)C(=O)N1CCN1CCCCC1)c64)C(=O)N(CCN1CCCCC1)C5=O,> 100
5,Cc1cccc(NS(=O)(=O)c2ccc3c(c2)OCCOCCOCCOCCO3)c1,> 100

# Tested on: A498 renal
# Experiment: inhibition of tumour cell growth, NCI panel, 48 h
row,SMILES,TGI [µM]
1,CN1N(c2ccccc2)C(=O)C2=NC=C(C(=O)c3ccccc3)C(=N)C21C (stereo unspecified),> 100
2,Cc1cc(=O)[nH]c(-n2[nH]c3c(c2=O)CCCC3)n1,> 100
3,O=C1c2ccc3c4ccc5c6c(ccc(c7ccc(c2c37)C(=O)N1CCN1CCCCC1)c64)C(=O)N(CCN1CCCCC1)C5=O,> 100
4,Cc1cccc(NS(=O)(=O)c2ccc3c(c2)OCCOCCOCCOCCO3)c1,> 100

# Tested on: MDA-MB-231 breast
# Experiment: inhibition of tumour cell growth, NCI panel, 48 h
row,SMILES,TGI [µM]
1,CN1N(c2ccccc2)C(=O)C2=NC=C(C(=O)c3ccccc3)C(=N)C21C (stereo unspecified),> 100
2,Cc1cc(=O)[nH]c(-n2[nH]c3c(c2=O)CCCC3)n1,> 100
